Laboratory results: patent publication US10463658B2, “Method of inhibiting FLT3 kinase” (AROG Pharmaceuticals, LLC, priority 2013, dated 2019)
Changes are numbered by the printed parent chain. pIC50, pKd: −log10 of the molar value.

What was measured:
[1] = tested on: Ba/F3 expressing FLT3-D835Y/ITD cells; test: Activity against Ba/F3 cells with FLT3-ITD and FLT3-D835Y mutation; format: cell-based; conditions: Mus musculus, BaF3; Ba/F3 FLT-ITD/D835Y cells; read-out: IC50 pFLT3 (text: decreased viability)
wild type FLT3 = target: T1, wild type FLT3 (Homo sapiens, UniProt P36888); test: Direct enzyme phosphorylation assay (Millipore Kinase IC50 Profiler), wild type FLT3; format: biochemical; conditions: tosylate salt; n=2; read-out: IC50 against wild type FLT3
T1 construct: purchased Millipore
T1 sequence (P36888 27-993): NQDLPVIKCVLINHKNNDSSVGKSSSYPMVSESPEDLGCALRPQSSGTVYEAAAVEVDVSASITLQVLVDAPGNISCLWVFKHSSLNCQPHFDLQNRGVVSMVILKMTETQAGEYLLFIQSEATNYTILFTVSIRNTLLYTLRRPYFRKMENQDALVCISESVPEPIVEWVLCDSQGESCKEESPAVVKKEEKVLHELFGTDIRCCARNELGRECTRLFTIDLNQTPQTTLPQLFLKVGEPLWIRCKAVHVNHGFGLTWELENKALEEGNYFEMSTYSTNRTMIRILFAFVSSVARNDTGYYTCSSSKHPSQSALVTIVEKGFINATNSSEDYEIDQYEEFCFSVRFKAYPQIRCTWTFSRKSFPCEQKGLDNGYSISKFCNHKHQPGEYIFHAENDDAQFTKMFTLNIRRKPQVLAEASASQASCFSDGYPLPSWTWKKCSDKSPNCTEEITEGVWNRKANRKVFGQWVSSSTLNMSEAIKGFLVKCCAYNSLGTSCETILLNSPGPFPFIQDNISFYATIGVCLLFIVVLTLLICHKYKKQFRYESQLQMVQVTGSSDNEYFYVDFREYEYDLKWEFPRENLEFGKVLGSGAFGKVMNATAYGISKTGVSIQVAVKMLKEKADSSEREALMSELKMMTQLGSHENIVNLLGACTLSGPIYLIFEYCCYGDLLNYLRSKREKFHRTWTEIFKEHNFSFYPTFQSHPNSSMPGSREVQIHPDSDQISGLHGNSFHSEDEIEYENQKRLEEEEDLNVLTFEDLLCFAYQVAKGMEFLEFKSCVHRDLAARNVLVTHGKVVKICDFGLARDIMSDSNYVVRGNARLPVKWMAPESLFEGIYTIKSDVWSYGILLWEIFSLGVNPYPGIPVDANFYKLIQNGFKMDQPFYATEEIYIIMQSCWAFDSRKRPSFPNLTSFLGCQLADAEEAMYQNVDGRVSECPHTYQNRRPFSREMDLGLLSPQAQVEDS
Method: Direct enzyme phosphorylation assay. The Millipore Kinase IC50 Profiler assay was used to screen the present invention against a panel of normal FLT3 and mutated FLT3 kinases. For assays of both kinases, the FLT3 enzyme was incubated with 8 mM of 3-(N-morpholino)propanesulfonic acid (MOPS) at a pH of 7.0, 0.2 mM Ethylenediaminetetraacetic acid (EDTA), 50 uM, a synthetic Abl peptide substrate […] (SEQ ID NO: 1), 10 mM MgAcetate and [γ-^33P-ATP]. The reaction was initiated by the addition of MgATp mix. The reaction mixture was incubated for 40 minutes at room temperature and halted by the addition of 3% phosphoric acid solution. 10 uL of the reaction solution was spotted on P30 filtermat and washed three times in 75 mM phosphoric acid for 5 minutes and then once in methanol prior to drying and scintillation counting. The scintillation values for each replicate, including positive and negative controls, were analyzed using XLFit version 5.1 to determine the IC50 values for the present invention against normal and mutated FLT3.

FLT3 (ITD, F691I) = target: T2, FLT3 (ITD, F691I) (Homo sapiens, UniProt P36888); test: KINOMEscan KdElect competitive binding assay, dual mutant FLT3 (ITD, F691I); conditions: tosylate salt; read-out: Kd, FLT3 (ITD, F691I) double mutant
T2 construct: fused on or other part: DNA tag / T7 phage display tag for qPCR detection
Source text: (§1) Competitive binding assay.
(§2) The lysates were then centrifuged and filtered.

FLT3 D835V = target: T3, FLT3 D835V (Homo sapiens, UniProt P36888, D835V); test: KINOMEscan KdElect competitive binding assay, FLT3 D835V; conditions: tosylate salt
T3 construct: host or cells: E. coli BL21-derived host (T7 phage) or HEK-293
T3 sequence (P36888 610-943 D835V limits assumed): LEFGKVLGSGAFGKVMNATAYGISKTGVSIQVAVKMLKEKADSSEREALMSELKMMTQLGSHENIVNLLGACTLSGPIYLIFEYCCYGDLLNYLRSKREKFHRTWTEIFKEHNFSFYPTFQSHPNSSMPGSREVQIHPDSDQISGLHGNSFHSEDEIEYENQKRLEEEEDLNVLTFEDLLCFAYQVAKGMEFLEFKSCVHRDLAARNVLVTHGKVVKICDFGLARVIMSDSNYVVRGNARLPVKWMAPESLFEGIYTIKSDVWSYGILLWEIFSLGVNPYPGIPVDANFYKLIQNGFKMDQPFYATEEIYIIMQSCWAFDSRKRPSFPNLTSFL
Source text: as §1, §2

FLT3 K663Q = target: T4, FLT3 K663Q (Homo sapiens, UniProt P36888, K663Q); test: KINOMEscan KdElect competitive binding assay, FLT3 K663Q; conditions: tosylate salt; read-out: Binding Constant (Kd), FLT3 K663Q
T4 construct: host or cells: E. coli BL21-derived host (T7 phage) or HEK-293
T4 sequence (P36888 610-943 K663Q limits assumed): T3 sequence (P36888 610-943 D835V limits assumed) with K54Q, V226D
Source text: as §1, §2

FLT3 autoinhibited = target: T5, FLT3 autoinhibited (Homo sapiens, UniProt P36888); test: KINOMEscan KdElect competitive binding assay, autoinhibited FLT3; conditions: tosylate salt; average Kd; read-out: Binding Constant (Kd), FLT3 autoinhibited
T5 construct: host or cells: E. coli BL21-derived host (T7 phage) or HEK-293
T5 sequence (P36888 564-993 limits assumed): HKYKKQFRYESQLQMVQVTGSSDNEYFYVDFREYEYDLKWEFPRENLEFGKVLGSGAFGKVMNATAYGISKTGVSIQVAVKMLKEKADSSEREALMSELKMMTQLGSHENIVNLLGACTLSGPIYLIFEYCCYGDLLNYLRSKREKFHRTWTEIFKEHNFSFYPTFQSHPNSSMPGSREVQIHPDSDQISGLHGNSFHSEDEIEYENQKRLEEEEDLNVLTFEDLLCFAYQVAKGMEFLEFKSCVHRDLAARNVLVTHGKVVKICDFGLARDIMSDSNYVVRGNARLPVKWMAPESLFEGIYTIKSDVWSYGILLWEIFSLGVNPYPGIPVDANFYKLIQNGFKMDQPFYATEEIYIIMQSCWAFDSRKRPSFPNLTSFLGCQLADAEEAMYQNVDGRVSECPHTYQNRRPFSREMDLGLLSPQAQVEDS
Source text: as §1, §2

In the case of `COCCOc1ccc2c(c1)ncn2-c1ccc2cccc(N3CCC(N)CC3)c2n1` [CP-673,451], the pIC50 [1] was 7.62, the pIC50 (wild type FLT3) was 8.40 and the pKd (FLT3 (ITD, F691I)) was 9.74. It also gave a pKd (FLT3 D835V) of 10.82, a pKd (FLT3 K663Q) of 9.21 and a pKd (FLT3 autoinhibited) of 7.74.
